Results published in paper PMC7596334 (Redox Biology, 2020).

Biological target: T1, 15LOX2 (Homo sapiens, UniProt O15296)
T1 sequence (O15296 1-676): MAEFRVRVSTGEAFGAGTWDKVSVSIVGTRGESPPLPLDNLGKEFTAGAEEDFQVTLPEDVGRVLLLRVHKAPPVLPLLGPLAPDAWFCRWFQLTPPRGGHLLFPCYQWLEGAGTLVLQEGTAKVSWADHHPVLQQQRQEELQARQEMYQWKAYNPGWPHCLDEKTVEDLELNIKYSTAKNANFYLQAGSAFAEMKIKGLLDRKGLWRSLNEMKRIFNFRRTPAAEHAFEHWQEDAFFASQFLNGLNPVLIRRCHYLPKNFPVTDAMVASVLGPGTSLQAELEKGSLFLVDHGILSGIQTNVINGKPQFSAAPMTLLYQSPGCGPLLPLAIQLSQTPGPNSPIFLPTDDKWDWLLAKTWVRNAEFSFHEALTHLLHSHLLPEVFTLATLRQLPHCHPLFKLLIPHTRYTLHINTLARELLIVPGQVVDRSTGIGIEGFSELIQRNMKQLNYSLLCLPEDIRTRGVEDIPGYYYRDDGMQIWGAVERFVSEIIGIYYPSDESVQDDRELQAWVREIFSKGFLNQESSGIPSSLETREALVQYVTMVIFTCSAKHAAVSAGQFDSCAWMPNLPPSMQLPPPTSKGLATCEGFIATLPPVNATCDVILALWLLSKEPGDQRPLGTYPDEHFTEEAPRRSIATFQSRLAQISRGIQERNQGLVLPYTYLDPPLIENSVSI
T1 sequence (P30086 2-187 partner): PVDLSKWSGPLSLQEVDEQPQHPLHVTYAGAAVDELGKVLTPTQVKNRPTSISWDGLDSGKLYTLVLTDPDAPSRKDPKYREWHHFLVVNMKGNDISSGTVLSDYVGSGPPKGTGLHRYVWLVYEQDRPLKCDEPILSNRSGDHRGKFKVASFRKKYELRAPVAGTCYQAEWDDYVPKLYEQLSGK
Type: biochemical

- IC50: 10.1 nM
Compound: CCOC(=O)c1ccc(NC2CCCCC2)c(N)c1 [Fer-1, Ferrostatin-1]
